Source: patent US7208485B2, “Crystalline forms of halobetasol propionate” (Chemagis Ltd., priority 2003, dated 2007)

Assay: Thermal solid-state stability / phase transition on heating (hot-stage microscopy, DSC)
Format: physicochemical
Settings: for temperature of solid-solid phase transition upon heating: heating at ambient pressure, observed by hot-stage microscopy and as DSC peak
Method: Differential scanning calorimetry experiments were run on DuPont instruments model DSC 910, with software version 4.1C. Samples were analyzed inside 40 μl crimped Aluminum pan. Heating rate for all samples was 5° C./min. Since the melting of halobetasol propionate is accompanied by decomposition, the heating process was stopped slightly after the beginning of melting, in order to avoid damage to the measuring apparatus caused by decomposition products.

temperature of solid-solid phase transition upon heating	Compound	other results
90 °C	CCC(=O)O[C@]1(C(=O)CCl)[C@@H](C)CC2[C@@H]3C[C@H](F)C4=CC(=O)C=C[C@]4(C)[C@@]3(F)[C@@H](O)C[C@@]21C (some centres unmarked) [Form I, halobetasol propionate Form I]	
	CCC(=O)O[C@]1(C(=O)CCl)[C@@H](C)CC2[C@@H]3C[C@H](F)C4=CC(=O)C=C[C@]4(C)[C@@]3(F)[C@@H](O)C[C@@]21C (some centres unmarked) [Form II, halobetasol propionate Form II]	temperature to which heated without converting to another crystalline or amorphous form and without significant decomposition (heating): ≤ 200 °C; transitions upon heating to melting temperature (hot stage microscopy): no detectable transitions
160 °C	CCC(=O)O[C@]1(C(=O)CCl)[C@@H](C)CC2[C@@H]3C[C@H](F)C4=CC(=O)C=C[C@]4(C)[C@@]3(F)[C@@H](O)C[C@@]21C (some centres unmarked) [Form III, halobetasol propionate Form III]	
120–130 °C	CCC(=O)O[C@]1(C(=O)CCl)[C@@H](C)CC2[C@@H]3C[C@H](F)C4=CC(=O)C=C[C@]4(C)[C@@]3(F)[C@@H](O)C[C@@]21C (some centres unmarked) [Form IV, halobetasol propionate Form IV]	temperature of solid-solid phase transition under vacuum (heating under vacuum for about an hour or two): about 60 °C
about 90 °C	CCC(=O)O[C@]1(C(=O)CCl)[C@@H](C)CC2[C@@H]3C[C@H](F)C4=CC(=O)C=C[C@]4(C)[C@@]3(F)[C@@H](O)C[C@@]21C (some centres unmarked) [Form V, halobetasol propionate Form V]	
150–170 °C	CCC(=O)O[C@]1(C(=O)CCl)[C@@H](C)CC2[C@@H]3C[C@H](F)C4=CC(=O)C=C[C@]4(C)[C@@]3(F)[C@@H](O)C[C@@]21C (some centres unmarked) [Form VI, halobetasol propionate Form VI]	
